This is an account of results in patent publication US5756505A, “N-acylpiperazine derivative, antibacterial drug and anti-ulcer drug” (Shiseido Co., Ltd., priority 1995, dated 1998).

The subject of data set [1] is gastric mucosa. Description: PD: Gastric Mucosal Integrity Test. The class given is in vivo, rat (male Crj:SD). Conditions: rat, 100 mg/kg into ex vivo chamber, 60 minutes. Here is the method:
PD: Gastric Mucosal Integrity Test
In this case, since the sample compound has a necrotizing effect, it is inappropriate as an anti-ulcer medicament.
Therefore, the gastric mucosal potential difference (PD), which reflects the integrity of the gastric mucosa, is measured so as to confirm that the sample compound has no damasing effect on gastric mucosa, which is toxicity at gastric mucosal level.
Male Crj:SD rats (7 to 8-week-old) was fasted overnight, but allowed free access to water, and then, under urethane anesthesia (1.25 g/kg, i.p.), fixed to a cork board on its back. The abdomen of each rat was incised, and a small incision was made in the forestomach. Then, the inside of the stomach was washed with physiological saline heated at 37° C. From the forestomach, along the greater curvature thereof, the stomach was incised without damaging blood vessels. After the height of the cork board was adjusted on a jack, the stomach was mounted on ex vivo chamber. The area of the gastric mucosa exposed to the inside of this chamber was 2.5 cm^2. The inside of the chamber was perfused with physiological saline warmed at 37° C. by micro tube pump. By using an agar bridge containing 3M KCl, the potential difference between the chamber and the abdominal cavity was measured by a PD meter. Here, the rectal temperature was measured to control the body temperature during the experiment. After the PD was sufficiently stabilized, the perfusate was stopped and then 100 mg/10 ml/kg of the sample compound dissolved or suspended in an aqueous solution of 0.5% sodium carboxymethyl cellulose or 0.05% Tween 80 were administered into the chamber, while PD was recorded for 60 minutes. To a control, the vehicle was administered.
The change in PD during 60 minutes after the administration of 100 mg/kg of the sample compound was collectively studied and, with reference to the positive control, classified into 5 levels as follows:
5: Same as the control with no recognizable damage at all.
3: Though a weak decrease in PD and a possibility of a weak mucosal damage is recognized, there is no substantial problem.
2: Medium degree of decrease in PD is found and a mucosal damage is recognized.
1: Heavy degree of decrease in PD is found and a remarkable mucosal damage is recognized.

Data set [2] deals with Helicobacter pyroli. Description: AHP: Antibacterial Activity Test Against Helicobacter pyroli. The note with it: for MIC: Helicobacter, NCTC11637, 168 h, H. pyroli NCTC 11637, agar dilution, 7 days, read-out: AHP: minimum inhibitory concentration (MIC). The class given is cell-based, Helicobacter pyroli NCTC 11637. The procedure:
AHP: Antibacterial […] Against Helicobacter pyroli i)Meaning The minimum inhibitory concentration (MIC) against Helicobacter pyroli (microaerophilic gram-negative bacterium which is supposed to deeply involve in pathogenesis, relapse, and recrudescence of ulcer, referred to as "HP" in the following) is measured so as to find out compounds which have antimicrobial activity against Helicobacter pyroli. ii)Method MICs were determined by the agar dilution method. […] Grown colonies were transfered to the same plate and cultured for 3 days under the same condition. […] A 1,000 μg/ml solution of the sample compound containing DMSO not more than 25% was […] diluted 2-fold in sterile purified water. 100 μl volume from each dilution was mixed thoroughly with 900 μl of brucella agar supplemented with 5% horse blood and solidified in a 24 well micro plate. 10 μl of the bacterial suspension (about 10^3 cfu) was inoculated on this plate and cultured for 7 days under the same condition as that of preculture.
For orientation: In agar dilution the substance is mixed into plates at graded concentrations.

The test system of data set [3] is stress ulcer formation. Description: WIS: Restraint and Water Immersion Stress-Induced Ulcer Inhibition Test. The class given is in vivo, rat (male Crj:SD or Slc:SD). The note with it: rat; for WIS: ulcer formation inhibitory rate: 100 mg/kg oral, 7 hours stress. Here is the method: WIS: Restraint and Water Immersion Stress-Induced Ulcer Inhibition Test
The degree of inhibition of the stress ulcer formation is tested.
Male Crj:SDor Slc:SD rats (6 to 7-week-old) were fasted overnight, but allowed free access to water. Each group has 5 to 8 of these rats. The sample compound was dissolved or suspended in an aqueous solution of 0.3% sodium carboxymethylcellulose or 0.05% Tween 80 and then was orally administered (100 mg/10 ml/kg). To a control group, the vehicle was administered. 10 minuts later, the rats were placed in a stress cage and immersed to the level of xipfoid process in a water bath (21° C.) for 7 hours. At the end of the stress, the rats were sacrificed by inhalation of ether or carbon dioxide. Then, the stomach of each was removed, inflated by injecting 10 ml of 5% formalin neutral buffer solution, and immersed in 1% formalin neutral buffer solution for 30 minutes or more to be fixed. The stomach was incised along the greater curvature and then the length of each erosion in the glandular portion was determined under dissecting microscope. The sum of the length of erosions per stomach was defined as ulcer index (UI).
The effect obtained when 100 mg/kg of the sample compound had been administered was expressed as ulcer formation inhibitory rate (%) as follows:
ulcer formation inhibitory rate (%)=[1-(UI in sample group/UI in control group)]×100

Consider `CC(C)Cc1cc(C(=O)N2CCN(CC(C)C)CC2)ccc1OCc1ccc(F)cc1.Cl` [Example 22, 1-[4-(4-fluorobenzyloxy)-3-isobutylbenzoyl]-4-isobutylpiperazine hydrochloride], for which the “PD: change in gastric mucosal potential difference, level” value in data set [1] is 5. In data set [2], the “antibacterial activity against Helicobacter pyroli (in words)” value is “improved” and the MIC amounted to 12.5 µg/mL. For the same molecule, the “WIS: ulcer formation inhibitory rate” value in data set [3] was 85%. The “anti-ulcer effect (in words)” value in data set [3] (in vivo) is “improved”.

Take `CC(C)Cc1cc(C(=O)N2CCN(CC(C)C)CC2)ccc1OCc1ccc(F)cc1F.Cl` [Example 24, 1-[4-(2,4-difluorobenzyloxy)-3-isobutylbenzoyl]-4-isobutylpiperazine hydrochloride]: the “PD: change in gastric mucosal potential difference, level” value in data set [1] came out at 2. In addition, in data set [2], the MIC stood at 6.25 µg/mL. The “WIS: ulcer formation inhibitory rate” value in data set [3] is recorded as 72%.
